Entries after “also recorded” stand apart in the source; their conditions may differ. Read-outs that look alike come from different tables or passages of the source.
How the values were obtained:
mTOR = mTOR inhibition (RPS6 phosphorylation status), In-Cell Western; format: cell-based, human
Method in brief: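 WI-38 cells exposed to compounds at 5, 10 and 20 μM for 24 hrs. Fixed cells co-stained overnight at 4° C with anti-RPS and anti-pRPS6 (Ser-235/236) antibodies, then DyLight 680/800 secondaries. Phospho-RPS6 relative to total RPS6 read by near-infrared In-Cell Western imaging.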

WI-38 cells [1] = assay: MMS resistance assay; format: cell-based, human; details: for fold induction at 10 µM: Homo sapiens, 12 h
Method in brief: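 WI-38 cells were given compounds at five final concentrations (0.25–20 μM) in triplicate, followed by cadmium or MMS for 12 h. For MMS, medium was switched from OptiMEM+10% FBS to serum-free DMEM+2% BSA when compounds were added, 24 h before stressor. Two independent assays were run, analysed by global variance t-test.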

WI-38 cells [2] = assay: Long-term effects on cell viability (5 days, ATP; morphology, PI imaging); format: cell-based; details: for Luminescence signal for ATP measurement, day-1 Average / Luminescence signal for ATP measurement, day-2 Average / Luminescence signal for ATP measurement, day-3 Average / Luminescence signal for ATP measurement, day-4 Average / Luminescence signal for ATP measurement, day-5 Average: n = 6, day-0 luminescence = 320956 ± 24708;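 for Luminescence signal for ATP measurement, day-2 Average: compounds at 10 µM with ATP read daily over 5 days of treatment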;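 for Luminescence signal for ATP measurement, day-3 Average: compounds at 10 µM with ATP read daily over 5 days of treatment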;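 for Luminescence signal for ATP measurement, day-4 Average: compounds at 10 µM with ATP read daily over 5 days of treatment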;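 for Luminescence signal for ATP measurement, day-5 Average: compounds at 10 µM with ATP read daily over 5 days of treatment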
WI-38 cells [3] = system: WI-38 cells
Procedure: WI-38 cells were seeded on 384-well plates for 24 hrs and then incubated with small molecules for 24 hrs. […] Images were collected on an INCell Analyzer 2000 (GE) and analyzed with the Developer software.

WI-38 cells [4] = system: WI-38 cells; remark: listed apart in the source
WI-38 cells [5] = assay: Propidium iodide (PI) cell-death imaging upon H2O2 stress; format: cell-based, human; details: for Assay 7: H2O2-resistant, at 10 uM, validated by propidium iodide (PI) cell-death imaging: w/H2O2, 3 hrs/4 hrs/5 hrs, YES/NO; for cytotoxicity at 10 µM: Homo sapiens, WI-38
[6] = score in summary of 38 core set hits
[7] = WI-38 cells, 10 μM, (*) = compromised ability to protect cells from H2O2, could be due to stability issue
[8] = WI-38 cells, 10 uM, normalized ATP measurement
[9] = asterisks indicate the loss of the ability to protect cells from H2O2 over time
[10] = derived from dose response curves, 0.6-20 uM, H2O2-resistance of WI-38 cells
[11] = read-out: Est. ED50, dose response 0.6-20 μM, H2O2-resistance

## COc1cc2c(no[n+]2[O-])n2nnnc12 [O11]
mTOR; 2-point score
  G = mTOR down-regulation: 0
mTOR; summary score
  G = mTOR down-regulation: 0
WI-38 cells [1]; Exp. 1, WI-38 cells, 10 uM, normalized ATP measurement
  Exp. 1, under MMS stress treatment, at 10 uM (fold change): 0.97 fold change
WI-38 cells [1]; Exp. 2, WI-38 cells, 10 uM, normalized ATP measurement
  Exp. 2, under MMS stress treatment, at 10 uM (fold change): 4.20 fold change
WI-38 cells [1]; [6]
  B = MMS resistant: 0
WI-38 cells [1]; summary score
  B = MMS resistant: 0
  D = Triple resistant: 0
WI-38 cells [2]; 10 μM, up to 5 days, no H2O2
  Long-term cell toxicity (cell number, morphology, PI-positive dead cells): reduced cell number substantially and increased the fraction of PI-positive dead cells; also recorded: less cells, and more cells scored positive for propidium iodide
WI-38 cells [2]; Batch 1, 10 μM
  Luminescence signal for ATP measurement, day-1 Average: 310373
  Luminescence signal for ATP measurement, day-2 Average: 412288
  Luminescence signal for ATP measurement, day-3 Average: 484520
  Luminescence signal for ATP measurement, day-4 Average: 642267
WI-38 cells [2]; Batch 1, 10 μM, day-5, DMSO ctrl = 100.0%
  ATP luminescence by day-5 normalized: 61.7%
WI-38 cells [2]; Batch 1, 10 μM, day-5
  Luminescence signal for ATP measurement, day-5 Average: 633963
WI-38 cells [2]; negative point, cultured human cells
  Q = Potential toxicity: 1
WI-38 cells [2]; summary score
  O = Potential toxicity: 1
WI-38 cells [3]
  PI cell-death imaging without H2O2 (indicating potential toxicity): YES
WI-38 cells [3]; human
  PI-positive dead cells under normal conditions: 1.9%±0.7%
  Percentage of propidium iodide-positive dead cells (no H2O2 stress treatment), at 10 uM: 1.86% ± 0.71%,
WI-38 cells [4]; 10 uM, 24 h, then 700 μM H2O2 3 h, normalized to DMSO
  Screen 1: Screening, at 10 uM (viability assay by ATP measurement, normalized fold-change shown, >=2.5): 3.42 fold-change
WI-38 cells [4]; 10 uM, H2O2 stress
  Screen 2: Dose response, at 10 uM (viability assay by ATP measurement, normalized fold-change shown, >=1.5): 6.71 fold-change
WI-38 cells [4]; 20 uM, H2O2 stress
  Screen 3: Dose response, at 20 uM (viability assay by ATP measurement, normalized fold-change shown): 3.00 fold-change
WI-38 cells [4]; Exp. 1, WI-38 cells, 10 uM, normalized ATP measurement (Table 12)
  Exp. 1, under H2O2 stress treatment, at 10 uM (fold change): 3.53 fold change
WI-38 cells [4]; Exp. 2, WI-38 cells, 10 uM, normalized ATP measurement (Table 12)
  Exp. 2, under H2O2 stress treatment, at 10 uM (fold change): 2.10 fold change
WI-38 cells [4]; Experiment 1, WI-38 cells, 10 uM (run along with HDF cells)
  Experiment 1, WI-38 cells (under H2O2 stress treatment), at 10 uM (fold change): 2.52 fold change
WI-38 cells [4]; Experiment 2, WI-38 cells, 10 uM (run along with HDF cells)
  Experiment 2, WI-38 cells (under H2O2 stress treatment), at 10 uM (fold change): 28.12 fold change
WI-38 cells [4]; H2O2-resistance of WI-38 cells, cherry-picked retest, 10 uM
  Dose response retest, at 10 uM (fold change): 6.71 fold change
WI-38 cells [4]; H2O2-resistance of WI-38 cells, cherry-picked retest, 20 uM
  Dose response retest, at 20 uM (fold change): 3.00 fold change
WI-38 cells [4]; H2O2-resistance of WI-38 cells, library screening, 10 uM
  Library Screening, at 10 uM (fold change): 3.42 fold change
WI-38 cells [4]; [7]
  H2O2-resistant: YES
WI-38 cells [4]; WI-38 cells, H2O2 3 hrs, 10 uM, normalized ATP measurement
  H2O2 stress treatment (3 hrs), at 10 uM (fold change): 7.18 fold change
WI-38 cells [4]; [8]
  No H2O2 stress treatment, at 10 uM (fold change): 0.75 fold change
WI-38 cells [4]; YES/NO, if NO, possibly due to repeated freezing/thawing of stocks
  Assay 1: H2O2-resistant: YES
WI-38 cells [4]; [9]
  H2O2-resistant: YES
WI-38 cells [4]; [10]
  EC50: 4400 nM
WI-38 cells [4]; [11]
  EC50: 4400 nM
WI-38 cells [5]; 10 uM
  Assay 7: H2O2-resistant, at 10 uM, validated by propidium iodide (PI) cell-death imaging: YES
WI-38 cells [5]; H2O2 3 hrs, 10 uM, n = 6, negative control 5.44% ± 0.79%
  Percentage of propidium iodide-positive dead cells (under H2O2 stress treatment), 3 hrs: 2.19% ± 0.35%,
WI-38 cells [5]; H2O2 4 hrs, 10 uM, n = 6, negative control 16.81% ± 1.42%
  Percentage of propidium iodide-positive dead cells (under H2O2 stress treatment), 4 hrs: 2.80% ± 0.49%,
WI-38 cells [5]; H2O2 5 hrs, 10 uM, n = 6, negative control 22.50% ± 1.53%
  Percentage of propidium iodide-positive dead cells (under H2O2 stress treatment), 5 hrs: 2.90% ± 0.70%,
WI-38 cells [5]; pre-treatment at 10 uM, 3.5 hours of H2O2, DMSO control 27.4% ± 6.5%, */**/*** = reduced by one/two/three standard deviations
  Percentage of propidium iodide-positive dead cells (under H2O2 stress treatment), at 10 uM: 26.5%

## CCCC(=O)Nc1ccc(-c2cn3cccc(C)c3n2)cc1 [O12]
mTOR; 2-point score
  G = mTOR down-regulation: 0
mTOR; summary score
  G = mTOR down-regulation: 0
WI-38 cells [1]; Exp. 1, WI-38 cells, 10 uM, normalized ATP measurement, read-out: Exp. 1, under MMS stress treatment, at 10 uM (fold change)
  fold induction at 10 µM: 0.78
WI-38 cells [1]; Exp. 2, WI-38 cells, 10 uM, normalized ATP measurement, read-out: Exp. 2, under MMS stress treatment, at 10 uM (fold change)
  fold induction at 10 µM: 2
WI-38 cells [1]; [6]
  B = MMS resistant: 0
WI-38 cells [1]; summary score
  B = MMS resistant: 0
  D = Triple resistant: 0
WI-38 cells [2]; Batch 1, 10 μM
  Luminescence signal for ATP measurement, day-1 Average: 527095
  Luminescence signal for ATP measurement, day-2 Average: 702483
  Luminescence signal for ATP measurement, day-3 Average: 876448
  Luminescence signal for ATP measurement, day-4 Average: 1128385
WI-38 cells [2]; Batch 1, 10 μM, day-5
  Luminescence signal for ATP measurement, day-5 Average: 1117938
WI-38 cells [2]; Homo sapiens, WI-38, 120 h, Batch 1, 10 μM, day-5, DMSO ctrl = 100.0%, read-out: ATP luminescence by day-5 normalized
  viability at 10 µM: 109%
WI-38 cells [2]; human, 5 days, 10 μM
  O = Potential toxicity: 0
  Q = Potential toxicity: 0
WI-38 cells [3]; no H2O2 stress, 10 uM, negative control 0.41% ± 0.23%
  Percentage of propidium iodide-positive dead cells (no H2O2 stress treatment), at 10 uM: 0.45% ± 0.05%,
WI-38 cells [4]; [7]
  H2O2-resistant: YES
WI-38 cells [4]; [8]
  No H2O2 stress treatment, at 10 uM (fold change): 1.01 fold change
WI-38 cells [4]; [9]
  H2O2-resistant: YES
WI-38 cells [4]; [10]
  EC50: 1000 nM
WI-38 cells [4]; [11]
  EC50: 1000 nM
WI-38 cells [5]; 10 uM
  Assay 7: H2O2-resistant, at 10 uM, validated by propidium iodide (PI) cell-death imaging: YES
WI-38 cells [5]; H2O2 3 hrs, 10 uM, n = 6, negative control 5.44% ± 0.79%, read-out: Percentage of propidium iodide-positive dead cells (under H2O2 stress treatment), 3 hrs
  cytotoxicity at 10 µM: 0.74%
WI-38 cells [5]; H2O2 4 hrs, 10 uM, n = 6, negative control 16.81% ± 1.42%, read-out: Percentage of propidium iodide-positive dead cells (under H2O2 stress treatment), 4 hrs
  cytotoxicity at 10 µM: 0.77%
WI-38 cells [5]; H2O2 5 hrs, 10 uM, n = 6, negative control 22.50% ± 1.53%, read-out: Percentage of propidium iodide-positive dead cells (under H2O2 stress treatment), 5 hrs
  cytotoxicity at 10 µM: 1.33%
WI-38 cells [5]; pre-treatment at 10 uM, 3.5 hours of H2O2, DMSO control 27.4% ± 6.5%, */**/*** = reduced by one/two/three standard deviations, read-out: Percentage of propidium iodide-positive dead cells (under H2O2 stress treatment), at 10 uM
  cytotoxicity at 10 µM: 0.4%

Source: US11413278B2, “Compounds and methods for promoting stress resistance” (priority 2015, dated 2022)
